pIC50: −log10 of the molar value.
tested on: P. falciparum 3D7 growth, pLDH absorbance; test: blood-stage malaria parasite growth potency – strain 3D7, dose response (AID 2305)

Row | Structure (SMILES) | pIC50
1 | O=C(NC1CCC(CCN2Cc3cccc(F)c3C2)CC1)c1cccc(-c2cccnc2)c1 (stereo unspecified) | 6.52
2 | O=C(Cc1cnc[nH]1)Nc1cccc(-c2cccc(-c3nc4ccc(F)cc4[nH]3)c2)c1 | 6.11
3 | CC(C)CC(=O)N1CCNC[C@@H]1C(=O)NCCSCc1c(F)cccc1Cl | 5.92
4 | Cc1ccc2nc(C)cc(NN=Cc3cccc(F)c3)c2c1 | 6.20
5 | CCOC(=O)c1cc(C(=O)OC)c2ccccn12 | 6.66
6 | COc1cc2c(cc1OC)C(C(=O)Nc1ccc(C(F)(F)F)cc1)C(c1cccs1)N(C)C2=O (stereo unspecified) | 6.80
7 | CCOc1c(N2CCN(CCCCNC(=O)c3ccc(NC(=O)c4ccc(Cl)cc4)cc3)CC2)ccc2ccccc12 | 6.17
8 | O=C(Nc1cccc(CN2CCCN(Cc3cccc(Cl)c3)CC2)c1)c1ccc(Cl)c(Cl)c1 | 6.00
9 | COC(C(=O)OCCC1CCCN1C)(c1ccccc1)C1CCCCC1 (stereo unspecified) | 6.15
10 | Cc1cc(N[C@@H](CC(C)C)C(=O)NCCOc2ccccc2)nc(Nc2ccccc2)n1 | 5.95
11 | CN1CCC[C@H]1COc1ccc(CN2CC[C@H](NC(=O)c3ccc(Cl)c(Cl)c3)C2)c2ccccc12 | 6.02
12 | COc1ccc2nccc([C@@H](O)CN3CCC(NC(=O)COc4nc(SCc5ccc(F)cc5)nc5c4CCC5)CC3)c2c1 | 6.23
13 | N#Cc1ccc(CN2CCC(NC(=O)c3ccc(-c4nnc(-c5cccc6ccccc56)o4)cc3)CC2)cc1 | 6.17
14 | CN(CCCCNC(=O)/C=C/c1ccccc1)C1CC2(CCN(C(=O)OC(C)(C)C)CC2)c2ccccc21 (stereo unspecified) | 5.94
15 | COCCn1c(Sc2ccc(C#N)c([N+](=O)[O-])c2)nnc1-c1ccc(N(C)C)cc1 | 5.99
16 | COc1ccc(CN2CCCC(Nc3ccc(F)c(F)c3)C2)c(O)c1 (stereo unspecified) | 5.96
17 | c1ccc2c3c(ccc2c1)Sc1c(ccc2ccccc12)N3 | 5.97
18 | Cc1cc(OCCCN2CCC(NS(=O)(=O)c3cccc(Br)c3)CC2)c2ccccc2n1 | 5.95
19 | CN(CCCN(C)c1cc(NC(=O)c2cccc(F)c2)ccn1)Cc1cccc(O)c1 | 5.72
20 | CN(C)c1ccc(-c2ccc(C(=O)NC3CCN(Cc4ccc(C(C)(C)C)cc4)CC3)s2)cc1 | 6.01
21 | Cc1nc(-c2nc(NCc3ccncc3)ncc2-c2ccsc2)sc1C | 6.00
22 | OC(c1n[nH]c(=S)n1-c1ccccc1)C(O)c1n[nH]c(=S)n1-c1ccccc1 (stereo unspecified) | 6.13
23 | CN1CCCN(Cc2cccc(-c3ccc(NC(=O)c4ccc(Cl)cc4)cc3)c2)CC1 | 6.14
24 | COc1ccc(C=NNc2cc(C)nc3ccccc23)cc1OC | 6.07

Row | Structure (SMILES) | pIC50
25 | OC(CN1CCN(c2cccc(Cl)c2)CC1)C(c1ccccc1)c1ccccc1 (stereo unspecified) | 5.94
26 | COc1ccc(CC2(c3ccc(F)cc3)N=C(N)N(CCCc3cccnc3)C2=O)cc1 (stereo unspecified) | 6.17
27 | CCCCCCOc1ccc(C(=O)N[C@H]2CCN(CCCCCNC(=O)/C=C/c3ccc(Cl)c(Cl)c3)C2)cc1 | 6.16
28 | CC(=O)Nc1cccc(CNCc2ccc(-c3cnc(N4CCCC(C)(C)C4)nc3)cc2)c1 | 6.09
29 | COc1ccc(-c2nonc2NC(=O)c2ccc(OC(C)C)cc2)cc1OC | 6.20
30 | CC1(C)CCC(C)(C)c2c1ccc(C1CCN(CCCCNC(=O)c3ccc(-c4ccc(Cl)cc4)cc3)CC1)c2O | 6.32
31 | CCCC(=O)Nc1ccc(OCCN(Cc2ccccc2OC(F)(F)F)c2ccc(C(F)(F)F)c(C#N)c2)cc1 | 6.10
32 | O=C(CCc1cnc[nH]1)Nc1ccc(-c2cccc(-c3nc4ccccc4[nH]3)c2)cc1 | 6.46
33 | COc1ccc2nc(-c3ccccc3)cc(NCCN(C)C)c2c1 | 6.14
34 | N#Cc1ccc2c(c1)CCN(CCC1CCC(NC(=O)/C=C/c3ccc(Cl)c(Cl)c3)CC1)CC2 (stereo unspecified) | 6.38
35 | Cc1ccc(CC(C)NCC(O)c2cccc(Cl)c2)cc1F (stereo unspecified) | 6.13
36 | O=C(/C=C/c1ccc(Cl)c(Cl)c1)NCc1ccc(CN2CCC(c3c[nH]c4ccccc34)CC2)cc1 | 6.15
37 | O=S(=O)(NC1CCN(c2ccnc3cc(Cl)ccc23)C1)c1cccc(F)c1 (stereo unspecified) | 6.31
38 | COc1ccc2ncc(F)c([C@H](O)CN3CCC(NCc4ccc5c(c4)NC(=O)CO5)CC3)c2c1 | 6.77
39 | O=C(Cc1cnc[nH]1)Nc1cccc(-c2ccc(-c3nc4ccc(F)cc4[nH]3)cc2)c1 | 6.09
40 | CCCN1CCN(CCNC(=O)c2cccc(Nc3nccc(Nc4ccc(Oc5ccccc5)cc4)n3)c2)CC1 | 6.62
41 | Cc1ccc([N+](=O)[O-])cc1NC(=O)N(CC(O)c1ccccc1)C1CCCCC1 (stereo unspecified) | 6.14
42 | O=S(=O)(Nc1cccc(CCN2CCC(N3CCCCC3)CC2)c1)c1ccc(Oc2ccccc2)cc1 | 6.11
43 | COc1cccc(C(=O)Nc2ccc(S(=O)(=O)c3cc4c(cc3OC)CCN(C)CC4)cc2)c1 | 5.96
44 | CCN(CC)CCCNc1ncc2c(-c3ccc(NC(=O)Nc4cc(C(F)(F)F)ccc4F)cc3)nn(C)c2n1 | 6.66
45 | CC(=O)C1=NN(c2ccc(Cl)cc2)C(c2cccs2)N1c1ccccc1 (stereo unspecified) | 6.40
46 | CN1CCN(c2ccc(Nc3nccc(-c4c(-c5cccc(NC(=O)c6c(F)cccc6F)c5)nn5ccccc45)n3)cc2)CC1 | 6.96
47 | Cc1cccc(OCC(=O)Nc2cccc(NC(=O)COc3cccc(C)c3)n2)c1 | 6.17
48 | O=C(Nc1cccc(-c2ccc(-c3nc4ccc(C(F)(F)F)cc4[nH]3)cc2)c1)c1ccoc1 | 6.15

Row | Structure (SMILES) | pIC50
49 | O=C(Nc1ccccc1C(F)(F)F)Nc1nn(Cc2c(F)cccc2Cl)cc1Br | 6.47
50 | CN(CC1CCC(NC(=O)/C=C/c2ccc(Cl)c(Cl)c2)CC1)C1CCC(c2c[nH]c3ccccc23)CC1 (stereo unspecified) | 6.08
51 | CC(=O)Nc1ccc(CN(Cc2cccc(OC(C)(C)C)c2)Cc2ccc3c(c2)OCCO3)cc1 | 6.85
52 | Cc1cc(NN=Cc2cccc(Cl)c2)c2cc(F)ccc2n1 | 6.12
53 | O=C(NCCc1ccccc1)N(Cc1cccc(-c2ccc(CNCCc3ccccc3)cc2)c1)C1CCN(Cc2ccccc2)CC1 | 6.21
54 | Cc1nc(N)nc(N)c1OCc1cccc2ccccc12 | 7.15
55 | CC(C)C(C(=O)n1ncc2c3c(N)nc(N)nc3ccc21)C(C)C | 6.19
56 | O=C(Nc1ccc(N2CCN(Cc3ccccc3Cl)CC2)cc1)c1ccc([N+](=O)[O-])o1 | 6.01
57 | Cc1[nH]c2ccccc2c1C1=CCN(CCCCC2(C)C(=O)Nc3cccc(F)c32)CC1 (stereo unspecified) | 6.44
58 | CCc1sc(CN(CCCNc2cc(=O)c3ccccc3[nH]2)Cc2sc(CC)c(Br)c2-c2ccsc2)c(-c2ccsc2)c1Br | 7.05
59 | COc1ccc(NC(=O)CCNc2cc(C)nc(NCc3cccc(C)c3)n2)cc1 | 5.96
60 | CC[C@H](C)CNC(=O)c1cncc(-c2ccc(CNCC3CNCCCO3)cc2)c1 (stereo partly specified) | 5.99
61 | O=C(NCC1CCN(CCN2CCC(c3cn(CCO)c4ccccc34)CC2)CC1)c1ccc(-c2ccc(C(F)(F)F)cc2)cc1 | 6.36
62 | O=C(Nc1ccc(-c2cccc(-c3nc4ccccc4[nH]3)c2)cc1)c1cnn2cccnc12 | 6.22
63 | CC(Cc1ccc(NC(=O)[C@@H](C)NCCc2cccc(Cl)c2)cc1)NCCc1cccc(Cl)c1 (stereo partly specified) | 6.11
64 | O=[N+]([O-])c1ccc(C2=NN(S(=O)(=O)c3c(Cl)cc(Cl)cc3Cl)CCCC2)cc1 | 6.89
65 | Cc1cc(F)ccc1Nc1nc(N(C)c2ccccc2)c2cc(OCCN(C)C)ccc2n1 | 6.10
66 | COc1cc(CC2c3cc(O)c(Cl)cc3CCN2C)c(OC)cc1C (stereo unspecified) | 6.15
67 | COc1ccc(CNC2Cc3ccccc3C2)cc1-c1ccc(S(=O)(=O)NCCN2CCCC2)s1 | 6.72
68 | CC1(C)CN(CCC2CCC(NC(=O)/C=C/c3ccccc3F)CC2)Cc2ccc(C#N)cc21 (stereo unspecified) | 5.95
69 | O=C(Nc1ccon1)c1cc(-c2cccnc2)nc2ccc(Cl)cc12 | 6.10
70 | COc1cc(NC(=O)N2CCc3ccc(OCCN(C(C)C)C(C)C)cc32)cc(C(F)(F)F)c1 | 6.72
71 | NCc1ccc(-c2cccc(CNC3CCN(Cc4ccccc4)CC3)c2)cc1 | 6.17
72 | CC(CN(C)C)C(=O)Nc1cccc(-c2cccc(-c3nc4ccc(F)cc4[nH]3)c2)c1 (stereo unspecified) | 6.08

Row | Structure (SMILES) | pIC50
73 | OC1CCCN(Cc2ccc(-c3ccc(-c4nc5ccccc5[nH]4)cc3)cc2)C1 (stereo unspecified) | 6.08
74 | O=S(=O)(NCCCN1CCOCC1)c1ccc2nccc(Nc3ccc(Oc4ccccc4)cc3)c2c1 | 6.07
75 | CC(C)(C)NCC(O)COc1ccc(Cl)cc1C1=NNC(=O)CC1 (stereo unspecified) | 6.82
76 | Cc1c(C(C)(C)C)ccc2nc(N)nc(N)c12 | 8.00
77 | O=C(/C=C/c1ccc(Cl)c(Cl)c1)NCCCCCN1CCC(NC(=O)c2ccc(F)cc2F)CC1 | 6.12
78 | COc1cccc(C2(c3cccc(OC)c3)N=C(N)N(CCCc3ccccc3)C2=O)c1 | 6.59
79 | COc1ccc2ncc(F)c(CCN3CCC4(CC3)COC(c3cc5c(cn3)OCCO5)=N4)c2n1 | 6.66
80 | C=CC[C@H](NC(=O)c1ccc(NS(=O)(=O)c2ccc3nc(N)[nH]c(=O)c3c2)cc1)C(=O)OCCCC | 6.82
81 | CC(=O)N(Cc1cccc(-c2ccc(CNCCc3ccccc3)cc2)c1)C1CCN(Cc2ccccc2)CC1 | 6.16
82 | COc1ccccc1Nc1nc(C)cc(NCc2ccc(-c3c(C)noc3C)cc2)n1 | 6.06
83 | CC(C)C[C@H](NC(=O)c1ccc(OCCN2CCOCC2)cc1)C(=O)NC(/C=N/N1CCCC1=O)C(C)C (stereo partly specified) | 6.60
84 | FC(F)(F)c1ccc2nc(-c3cccc(-c4ccc(CNCc5ccccc5)cc4)c3)[nH]c2c1 | 6.80
85 | CC(O)C1CCCCN1C(=O)c1cccc(-c2ccc(-c3nc4ccc(C(F)(F)F)cc4[nH]3)cc2)c1 (stereo unspecified) | 6.16
86 | COc1cc2c(cc1CCNCCCCNCCc1cc3c(cc1OC)CCCC3)CCCC2 | 6.00
87 | CCN1CCN(c2ccc(Nc3c4ccccc4nc4ccccc34)cc2)CC1 | 6.14
88 | N#Cc1ccc(NC(=NC2Cc3ccccc3C2)Nc2cccc(Cl)c2Cl)c(O)c1 | 6.08
89 | Cc1ccc2c(NN=Cc3cccc([N+](=O)[O-])c3)cc(C)nc2c1 | 6.57
90 | O=C(Cn1c(SCc2cccc(F)c2F)cc(=O)c2ccccc21)N(CCN1CCCCC1)Cc1ccc(-c2ccc(C(F)(F)F)cc2)cc1 | 6.18
91 | O=C(CCC(=O)c1ccc2c3c(cccc13)CC2)NC1CCC(CN2CCC(c3c[nH]c4ccccc34)CC2)CC1 (stereo unspecified) | 6.04
92 | Cc1cccc(Cn2c(C(N)=O)nn(-c3ccc([N+](=O)[O-])cc3C#N)c2=S)c1 | 6.14
93 | O=C(Nc1cccc(C(F)(F)F)c1)N1CCOC(CCN2CCC3(CCc4ccccc43)CC2)(c2ccc(Cl)c(Cl)c2)C1 (stereo unspecified) | 6.13
94 | O=C(Nc1cccc(-c2nn3ncccc3c2-c2ccnc(Nc3ccccc3)n2)c1)c1c(F)cccc1F | 6.14
95 | CC1(C)N=C(N)N=C(N)N1c1cccc(C(F)(F)F)c1 | 8.00
96 | c1ccc(C2CCC(N3CCC(N4CCN(c5ccccc5)CC4)CC3)CC2)cc1 (stereo unspecified) | 6.12

Source: PubChem BioAssay AID2305 (GlaxoSmithKline (GSK), 2010)
